Consider 32 molecules from US20060128695A1, “Cyclic nucleotide phosphodiesterase inhibitors, preparation and uses” (NEURO3D, priority 2002, published 2006).

Structures are written as SMILES. Counter-ions that a name gives are not always drawn.

In one assay the target is T1, PDE2 (Bos taurus, UniProt P14099).
T1 construct: PDE2 was prepared from bovine endothelial cells by the same methods; endogenous in cells; host or cells: bovine endothelial cells
T1 sequence (P14099 1-921): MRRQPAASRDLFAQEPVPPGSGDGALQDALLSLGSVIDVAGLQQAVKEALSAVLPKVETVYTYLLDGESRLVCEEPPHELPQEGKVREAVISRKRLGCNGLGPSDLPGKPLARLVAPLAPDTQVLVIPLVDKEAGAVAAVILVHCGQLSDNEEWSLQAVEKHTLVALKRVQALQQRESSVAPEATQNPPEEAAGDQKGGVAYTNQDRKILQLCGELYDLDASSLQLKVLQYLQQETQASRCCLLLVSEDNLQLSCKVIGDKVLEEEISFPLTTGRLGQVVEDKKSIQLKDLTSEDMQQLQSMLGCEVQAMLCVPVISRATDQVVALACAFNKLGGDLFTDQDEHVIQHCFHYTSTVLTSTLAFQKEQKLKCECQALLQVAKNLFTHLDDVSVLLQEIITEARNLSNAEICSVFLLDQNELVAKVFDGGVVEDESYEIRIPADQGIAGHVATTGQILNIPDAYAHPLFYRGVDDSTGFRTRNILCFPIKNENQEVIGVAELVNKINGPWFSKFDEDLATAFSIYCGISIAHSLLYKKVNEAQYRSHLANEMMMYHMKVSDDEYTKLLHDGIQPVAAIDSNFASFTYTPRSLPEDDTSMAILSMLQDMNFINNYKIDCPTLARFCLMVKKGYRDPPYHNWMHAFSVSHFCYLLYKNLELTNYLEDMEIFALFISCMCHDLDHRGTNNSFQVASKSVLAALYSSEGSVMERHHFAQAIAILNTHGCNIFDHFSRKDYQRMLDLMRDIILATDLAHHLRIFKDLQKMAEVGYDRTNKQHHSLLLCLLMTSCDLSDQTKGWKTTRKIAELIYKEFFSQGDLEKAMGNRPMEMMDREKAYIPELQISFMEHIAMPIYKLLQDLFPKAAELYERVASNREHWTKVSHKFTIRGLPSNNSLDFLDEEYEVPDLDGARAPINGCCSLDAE
The assay can be described thus: Inhibition of PDE2, radioenzymatic phosphodiesterase assay. It counts as biochemical, bovine.
Details: not given
`COc1ccc2c(c1)N(C)C(=O)CN=C2c1cccc(C(N)=O)c1` [Compound 5l, 3-(8-methoxy-1-methyl-2-oxo-2,3-dihydro-1H-1,4-benzodiazepin-5-yl)benzamide] came in with a concentration for half-maximal inhibition (IC50) of 14 µM.
Same read-out and setting: in the case of `COc1cc2c(cc1OC)N(C)C(=O)CN=C2c1cccc(C#CCNC(=O)OC(C)(C)C)c1` [Compound 6a, Tert-butyl-3-[3-(7,8-dimethoxy-1-methyl-2-oxo-2,3-dihydro-1H-1,4-benzodiazepin-5-yl)phenyl]propynylcarbamate] it was 8.4 µM.
`CCCCC#Cc1cccc(C2=NCC(=O)N(C)c3cc(OC)c(OC)cc32)c1` [Compound 6b, 7,8-dimethoxy-5-(3′-hex-1-ynylphenyl)-1-N-methyl-1,3-dihydro-2H-1,4-benzodiazepin-2-one] showed an IC50 of 1.06 µM.
Still for that read-out and setting: the figure for `COc1cc2c(cc1OC)N(C)C(=O)CN=C2c1cccc(C#CCN2CCCCC2)c1` [Compound 6c, 7,8-dimethoxy-1-methyl-5-[3-(3-piperidin-1-ylprop-1-ynyl)phenyl]-1,3-dihydro-2H-1,4-benzodiazepin-2-one] is 4.3 µM; for `CCCCCCc1cccc(C2=NCC(=O)N(C)c3cc(OC)c(OC)cc32)c1` [Compound 6e, 7,8-dimethoxy-5-(3′-hexylphenyl)-1-N-methyl-1,3-dihydro-2H-1,4-benzodiazepin-2-one] it is 0.36 µM; for `COc1cc2c(cc1OC)N(C)C(=O)CN=C2c1cccc(CCCCCC(N)=O)c1` [Compound 6i, 6-[3-(7,8-dimethoxy-1-methyl-2-oxo-2,3-dihydro-1H-1,4-benzodiazepin-5-yl)phenyl]hexanamide] it is 5.6 µM.
As for `COc1cc2c(cc1OC)N(C)C(=O)C(Cc1ccc(Cl)c(Cl)c1)N=C2c1cccc(C#N)c1` (centres unmarked) [Compound 7b, 3-[3-(3,4-dichlorobenzyl)-7,8-dimethoxy-1-methyl-2-oxo-2,3-dihydro-1H-1,4-benzodiazepin-5-yl]benzonitrile], the concentration for half-maximal inhibition (IC50) was determined as 5.5 µM.
For the molecule `COc1cc2c(cc1OC)N(C)C(=O)CN=C2c1cccc(CN)c1` [Compound 8a, 5-[3-(aminomethyl)phenyl]-7,8-dimethoxy-1-methyl-1,3-dihydro-2H-1,4-benzodiazepin-2-one], inhibition was half-maximal at 9 µM (IC50).
In the case of `COc1cc2c(cc1OC)N(C)C(=O)CN=C2c1cccc([N+](=O)[O-])c1` [Compound 17c, 7,8-dimethoxy-1-methyl-5-(3-nitrophenyl)-1,3-dihydro-1,4-benzodiazepin-2-one], the half-inhibitory concentration (IC50) was found to be 6.1 µM.
In turn, `COc1cc2c(cc1OC)N(C)C(=O)CN=C2c1cccc(C(C)=O)c1` [Compound 17e, 5-(3-acetylphenyl)-7,8-dimethoxy-1-methyl-1,3-dihydro-1,4-benzodiazepin-2-one] yielded a half-inhibitory concentration (IC50) of 6.7 µM.
Molecule `COc1cc2c(cc1OC)N(C)C(=O)CN=C2c1cncc2ccccc12` [Compound 17f, 5-(4-isoquinolinyl)-7,8-dimethoxy-1-methyl-1,3-dihydro-1,4-benzodiazepin-2-one] yielded a half-maximal inhibitory concentration (IC50) of 4.7 µM.
In turn, `COc1cc2c(cc1OC)N(C)C(=O)CN=C2c1ccc(Cl)c(Cl)c1` [Compound 17j, 5-(3,4-dichlorophenyl)-7,8-dimethoxy-1-methyl-1,3-dihydro-1,4-benzodiazepin-2-one] registered an IC50 of 7 µM.
The same measure, in the same setting: the figure for `COc1cc2c(cc1OC)N(C)C(=O)CN=C2c1cccc(C)c1` [Compound 17k, 7,8-dimethoxy-1-methyl-5-(3-methylphenyl)-1,3-dihydro-1,4-benzodiazepin-2-one] is 3.7 µM.
As to `COc1cc2c(cc1OC)N(C)C(=O)CN=C2c1cccc(C=O)c1` [Compound 17l, 5-(3-formylphenyl)-7,8-dimethoxy-1-methyl-1,3-dihydro-1,4-benzodiazepin-2-one], the midpoint of inhibition, the IC50, lay at 5 µM.
On the same count and under the same terms, in the case of `COc1cc2c(cc1OC)N(C)C(=O)CN=C2c1cccc(CNCc2ccccc2)c1` [Compound 17m, 5-[3-(benzylaminomethyl)phenyl]-7,8-dimethoxy-1-methyl-1,3-dihydro-2H-1,4-benzodiazepin-2-one hydrochloride] it was 4.8 µM; in that of `COc1cc2c(cc1OC)N(C)C(=O)CN=C2c1ccc2c(c1)OCO2` [Compound 17o, 7,8-dimethoxy-1-methyl-5-(3,4-methylenedioxyphenyl)-1,3-dihydro-2H-1,4-benzodiazepin-2-one], 7.8 µM.

The assay is the same for the next values; noted with them: 10 μM test compound; PDE2 from bovine endothelial cells.
For `CNC1=Nc2cc(OC)c(OC)cc2C(c2cccc(C#N)c2)=NC1` [Compound 12a, 3-(7,8-dimethoxy-2-methylamino-1,3-dihydro-3H-1,4-benzodiazepin-5-yl)benzonitrile], the “PDE2 percentage inhibition at 10 μM” value worked out at 16%.

The same assay, now with this note: 10 μM test compound; PDE2 from bovine endothelial cells; read-out: PDE2 percentage inhibition at 10 μM.
With `COc1cc2c(cc1OC)N(C)C(=O)CN=C2c1cccc(CNC(C)=O)c1` [Compound 8b, N-[3-(7,8-dimethoxy-1-methyl-2-oxo-2,3-dihydro-1H-1,4-benzodiazepin-5-yl)benzyl]acetamide], the inhibition at 10 µM stood at 27.2%.
On to `COc1cc2c(cc1OC)N(C)C(=O)CN=C2c1cccc(C(N)=S)c1` [Compound 9a, 3-(7,8-dimethoxy-1-methyl-2-oxo-2,3-dihydro-1H-1,4-benzodiazepin-5-yl)thiobenzamide], for which the inhibition at 10 µM came out at 85%.
Same read-out and setting: the figure for `COc1cc2c(cc1OC)-n1ccnc1CN=C2c1cccc(C(N)=O)c1` [Compound 11b, 3-(8,9-dimethoxy-4H-imidazo[1,2-a] [1,4]benzodiazepin-6-yl)benzamide] is 69.3%; for `COc1cc2c(cc1OC)N(C)C(=O)CN=C2c1cccc(NC(C)=O)c1` [Compound 17n, N-[3-(7,8-dimethoxy-1-methyl-2-oxo-2,3-dihydro-1H-1,4-benzodiazepin-5-yl)phenyl]acetamide] it is 38%.

The same assay, now with this note: read-out: PDE2 percentage inhibition at 10 μM.
With `COc1cc2c(c(-c3ccccc3)c1OC)N(C)C(=O)CN=C2c1cccc(C(N)=O)c1` [Compound 5m, 3-(7,8-dimethoxy-1-methyl-2-oxo-9-phenyl-2,3-dihydro-1H-1,4-benzodiazepin-5-yl)benzamide], the inhibition at 10 µM was 5.9%.
Regarding `CCN1C(=O)CN=C(c2cccc(C#CCOCc3ccccc3)c2)c2cc(OC)c(OC)cc21` [Compound 6k, 5-{3-[3-(benzyloxy)prop-1-ynyl]phenyl}-1-ethyl-7,8-dimethoxy-1,3-dihydro-2H-1,4-benzodiazepin-2-one], the inhibition at 10 µM was 69.7%.
With `COc1cc2c(cc1OC)N(C)C(=O)CN=C2c1cccc(-c2cccc(C#N)c2)c1` [Compound 6l, 3′-(7,8-dimethoxy-1-methyl-2-oxo-2,3-dihydro-1H-1,4-benzodiazepin-5-yl)-1,1′-biphenyl-3-carbonitrile], the inhibition at 10 µM is 77.5%.
As to `COc1cc2c(cc1OC)N(C)C(=O)CN=C2c1cccc(-c2cccc(C(N)=O)c2)c1` [Compound 6o, 3′-(7,8-dimethoxy-1-methyl-2-oxo-2,3-dihydro-1H-1,4-benzodiazepin-5-yl)-1,1′-biphenyl-3-carboxamide], the inhibition at 10 µM was found to be 79.3%.
With `COc1cc2c(cc1OC)N(C)C(=O)C(C)N=C2c1cccc(C(F)(F)F)c1` (centres unmarked) [Compound 7c, 7,8-dimethoxy-1,3-dimethyl-5-(3-trifluoromethylphenyl)-1,3-dihydro-2H-1,4-benzodiazepin-2-one], the inhibition at 10 µM was 41%.
The same measure, in the same setting: in the case of `COc1cc2c(cc1OC)N(C)C(=O)C(C)N=C2c1cccc(C#N)c1` (centres unmarked) [Compound 7d, 3-(7,8-dimethoxy-1,3-dimethyl-2-oxo-2,3-dihydro-1H-1,4-benzodiazepin-5-yl)benzonitrile] it was 33.8%.
For the molecule `COc1cc2c(cc1OC)N(C)C(=O)CN=C2c1cccc(-c2nc(-c3ccccc3)cs2)c1` [Compound 9b, 7,8-dimethoxy-1-methyl-5-[3-(4-phenyl-1,3-thiazol-2-yl)phenyl]-1,3-dihydro-2H-1,4-benzodiazepin-2-one], the inhibition at 10 µM came out at 91.4%.
Regarding `COc1cc2c(cc1OC)C(c1cccc(C#N)c1)=NCC(=S)N2` [Compound 10d, 5-(3-cyanophenyl)-7,8-dimethoxy-1,3-dihydro-2H-1,4-benzodiazepin-2-thione], the inhibition at 10 µM was determined as 5.5%.
Still for that read-out and setting: in the case of `COc1cc2c(cc1OC)-n1ccnc1CN=C2c1cccc(C#N)c1` [Compound 11a, 3-(8,9-dimethoxy-4H-imidazo[1,2-a][1,4]benzodiazepin-6-yl)benzonitrile] it was 43%.
The same measure, in the same setting: the figure for `CCCC1N=C(c2cccc(CO)c2)c2cc(OC)c(OC)cc2N(C)C1=O` (centres unmarked) [Compound 17h, 7,8-dimethoxy-5-(3-hydroxymethylphenyl)-1-methyl-3-propyl-1,3-dihydro-2H-1,4-benzodiazepin-2-one] is 9.2%; for `COc1cc2c(cc1OC)N(C)C(=O)CN=C2c1cccc(N)c1` [Compound 17i, 5-(3-aminophenyl)-7,8-dimethoxy-1-methyl-1,3-dihydro-2H-1,4-benzodiazepin-2-one] it is 40%.
